Reference: ChEMBL document CHEMBL1201862, “PubChem BioAssay data set” (2004)
Active and inactive are the calls of the source.

How the values were obtained:
[1] = target: T1, Corticotropin-releasing factor receptor 2/Corticotropin-releasing factor-binding protein (Homo sapiens, UniProt P24387+Q13324); experiment: activators of CRF receptor 2 with binding protein – uHTS hits, confirmation (AID 602473); assay type: functional; details: read-out: EC50_Mean
T1 sequence (Q13324 whole entry): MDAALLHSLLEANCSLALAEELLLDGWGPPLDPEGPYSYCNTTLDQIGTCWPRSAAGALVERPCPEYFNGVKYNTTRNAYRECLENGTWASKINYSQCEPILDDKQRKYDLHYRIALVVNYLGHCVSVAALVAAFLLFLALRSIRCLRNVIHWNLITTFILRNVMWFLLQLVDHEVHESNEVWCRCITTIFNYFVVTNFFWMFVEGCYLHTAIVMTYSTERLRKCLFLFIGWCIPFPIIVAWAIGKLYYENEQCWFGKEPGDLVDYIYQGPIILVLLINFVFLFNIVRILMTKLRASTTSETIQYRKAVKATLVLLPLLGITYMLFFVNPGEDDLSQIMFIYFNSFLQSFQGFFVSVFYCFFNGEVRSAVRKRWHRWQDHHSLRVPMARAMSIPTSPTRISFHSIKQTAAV
T1 sequence (P24387 whole entry): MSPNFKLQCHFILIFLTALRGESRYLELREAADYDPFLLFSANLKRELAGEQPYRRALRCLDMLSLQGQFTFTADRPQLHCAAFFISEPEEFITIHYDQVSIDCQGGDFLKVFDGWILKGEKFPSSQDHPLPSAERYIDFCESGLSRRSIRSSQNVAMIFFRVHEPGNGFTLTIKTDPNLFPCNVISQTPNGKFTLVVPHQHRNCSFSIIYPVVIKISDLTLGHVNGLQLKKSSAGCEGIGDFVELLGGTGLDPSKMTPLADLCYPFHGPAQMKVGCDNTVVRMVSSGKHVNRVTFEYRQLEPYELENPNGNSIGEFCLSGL

Cytochrome P450 2D6 = Cytochrome P450 2D6 (Homo sapiens, UniProt P10635);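 further: CYP2D6 member of a cytochrome P450 panel assay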
Chain of Cytochrome P450 2D6 (P10635 whole entry): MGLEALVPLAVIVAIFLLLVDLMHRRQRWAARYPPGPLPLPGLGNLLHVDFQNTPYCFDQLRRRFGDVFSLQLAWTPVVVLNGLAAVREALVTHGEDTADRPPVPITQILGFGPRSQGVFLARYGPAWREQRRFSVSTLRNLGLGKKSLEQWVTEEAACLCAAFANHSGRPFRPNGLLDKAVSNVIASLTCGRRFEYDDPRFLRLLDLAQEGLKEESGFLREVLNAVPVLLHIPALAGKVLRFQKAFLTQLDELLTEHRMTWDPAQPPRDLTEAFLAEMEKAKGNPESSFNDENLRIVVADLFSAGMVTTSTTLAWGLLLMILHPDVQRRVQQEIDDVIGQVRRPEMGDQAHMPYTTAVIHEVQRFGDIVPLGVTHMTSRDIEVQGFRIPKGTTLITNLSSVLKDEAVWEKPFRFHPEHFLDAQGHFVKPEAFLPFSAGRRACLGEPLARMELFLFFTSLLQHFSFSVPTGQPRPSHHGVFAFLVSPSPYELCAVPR

Cytochrome P450 2C19 = Cytochrome P450 2C19 (Homo sapiens, UniProt P33261); experiment: Cytochrome panel assay with activity outcomes. Panel member name: p450-cyp2c19 Compounds with AC50 equal or less than 10 uM are considered active; assay type: functional
Chain of Cytochrome P450 2C19 (P33261 whole entry): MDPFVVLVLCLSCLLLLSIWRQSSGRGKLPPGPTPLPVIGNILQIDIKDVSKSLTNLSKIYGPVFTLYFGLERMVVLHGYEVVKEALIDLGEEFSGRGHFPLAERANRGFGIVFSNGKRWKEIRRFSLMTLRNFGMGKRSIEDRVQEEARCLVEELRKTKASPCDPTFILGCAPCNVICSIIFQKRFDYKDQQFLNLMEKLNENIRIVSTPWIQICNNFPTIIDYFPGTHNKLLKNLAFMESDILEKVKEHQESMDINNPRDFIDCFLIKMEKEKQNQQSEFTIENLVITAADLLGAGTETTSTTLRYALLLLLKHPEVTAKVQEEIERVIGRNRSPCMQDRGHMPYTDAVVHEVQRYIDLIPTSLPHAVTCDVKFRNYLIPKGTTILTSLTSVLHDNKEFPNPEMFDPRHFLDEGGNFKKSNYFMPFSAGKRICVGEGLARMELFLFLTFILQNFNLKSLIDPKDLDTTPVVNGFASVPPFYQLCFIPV

Cytochrome P450 1A2 = target: T2, Cytochrome P450 1A2 (Homo sapiens, UniProt P05177);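 further: PubChem cytochrome P450 panel assay, CYP1A2 panel member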
T2 sequence (P05177 whole entry): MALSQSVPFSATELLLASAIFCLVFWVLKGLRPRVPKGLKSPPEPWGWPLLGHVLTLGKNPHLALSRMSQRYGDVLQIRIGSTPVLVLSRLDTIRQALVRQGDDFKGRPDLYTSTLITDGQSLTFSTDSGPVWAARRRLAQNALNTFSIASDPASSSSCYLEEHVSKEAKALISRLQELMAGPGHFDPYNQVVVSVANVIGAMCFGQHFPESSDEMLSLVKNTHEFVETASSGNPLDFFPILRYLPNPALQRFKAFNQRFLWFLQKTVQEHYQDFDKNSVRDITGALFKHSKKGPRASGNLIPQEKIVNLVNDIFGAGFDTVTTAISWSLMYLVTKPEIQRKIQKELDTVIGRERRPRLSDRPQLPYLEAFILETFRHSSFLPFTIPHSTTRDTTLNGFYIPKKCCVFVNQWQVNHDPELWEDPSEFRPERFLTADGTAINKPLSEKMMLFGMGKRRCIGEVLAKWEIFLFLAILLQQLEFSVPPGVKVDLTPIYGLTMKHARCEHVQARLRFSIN

Cytochrome P450 2C9 = Cytochrome P450 2C9 (Homo sapiens, UniProt P11712)
Chain of Cytochrome P450 2C9 (P11712 whole entry): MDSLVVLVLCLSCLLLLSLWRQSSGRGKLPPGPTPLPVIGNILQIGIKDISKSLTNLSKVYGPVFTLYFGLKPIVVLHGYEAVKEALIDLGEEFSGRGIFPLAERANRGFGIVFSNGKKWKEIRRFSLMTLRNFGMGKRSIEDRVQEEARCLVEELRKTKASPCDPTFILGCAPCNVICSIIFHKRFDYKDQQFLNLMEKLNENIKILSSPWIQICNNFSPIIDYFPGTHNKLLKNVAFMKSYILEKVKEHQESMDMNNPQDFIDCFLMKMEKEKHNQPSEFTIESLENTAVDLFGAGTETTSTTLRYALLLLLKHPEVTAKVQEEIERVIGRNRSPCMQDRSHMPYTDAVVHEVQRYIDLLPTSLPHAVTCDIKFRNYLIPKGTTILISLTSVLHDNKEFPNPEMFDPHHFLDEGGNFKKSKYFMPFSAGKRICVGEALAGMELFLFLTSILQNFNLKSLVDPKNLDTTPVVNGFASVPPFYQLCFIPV

[2] = target: T3, Rac GTPase-activating protein 1 (Homo sapiens, UniProt Q9H0H5); experiment: blockers of MgcRacGAP-driven Rac1 GTP hydrolysis – biochemical, ADP Hunter fluorescence, primary and confirmatory, confirmation (AID 624330); assay type: functional
T3 sequence (Q9H0H5 whole entry): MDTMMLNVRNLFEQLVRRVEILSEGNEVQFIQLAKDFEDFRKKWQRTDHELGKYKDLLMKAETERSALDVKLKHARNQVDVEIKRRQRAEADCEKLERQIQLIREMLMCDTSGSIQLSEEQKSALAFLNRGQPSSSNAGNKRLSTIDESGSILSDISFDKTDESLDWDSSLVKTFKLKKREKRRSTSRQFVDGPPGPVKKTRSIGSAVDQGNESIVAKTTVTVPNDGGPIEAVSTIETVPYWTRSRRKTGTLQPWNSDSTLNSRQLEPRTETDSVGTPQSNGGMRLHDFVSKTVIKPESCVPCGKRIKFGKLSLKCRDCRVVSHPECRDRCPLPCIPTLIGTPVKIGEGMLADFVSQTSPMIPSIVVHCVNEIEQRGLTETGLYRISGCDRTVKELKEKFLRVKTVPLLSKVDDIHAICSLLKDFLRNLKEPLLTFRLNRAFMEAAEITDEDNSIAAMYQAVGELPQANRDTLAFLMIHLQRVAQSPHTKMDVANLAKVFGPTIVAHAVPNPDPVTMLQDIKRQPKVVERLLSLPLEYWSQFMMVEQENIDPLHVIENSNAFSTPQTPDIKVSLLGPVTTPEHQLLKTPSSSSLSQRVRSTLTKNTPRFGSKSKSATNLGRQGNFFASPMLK

Streptococcus = experiment: GAS UMAA2166 growth inhibition – luminescence, BacTiterGlo, counter-screen for streptokinase expression inhibitor project, dose response (AID 1915); assay type: functional, organism-based;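 further: potency for reduction of bacterial viability or growth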
[3] = test system: Streptococcus sp. 'group A'; experiment: Streptococcus pyogenes SK(-)GAS viability under kanamycin – luminescence, BacTiterGlo, confirmation, counter-screen for streptokinase expression inhibitor project, dose response (AID 1900); assay type: functional, organism-based
Streptokinase A = target: T4, Streptokinase A (Streptococcus pyogenes serotype M1, UniProt P10520); experiment: viability-normalized secreted streptokinase activity reduction – plasminogen activation absorbance, OD405, dose response (AID 1914); assay type: functional, Streptococcus pyogenes M1 GAS;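 further: secreted streptokinase activity via plasminogen activation per viability signal from cell pellet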
T4 sequence (P10520 whole entry): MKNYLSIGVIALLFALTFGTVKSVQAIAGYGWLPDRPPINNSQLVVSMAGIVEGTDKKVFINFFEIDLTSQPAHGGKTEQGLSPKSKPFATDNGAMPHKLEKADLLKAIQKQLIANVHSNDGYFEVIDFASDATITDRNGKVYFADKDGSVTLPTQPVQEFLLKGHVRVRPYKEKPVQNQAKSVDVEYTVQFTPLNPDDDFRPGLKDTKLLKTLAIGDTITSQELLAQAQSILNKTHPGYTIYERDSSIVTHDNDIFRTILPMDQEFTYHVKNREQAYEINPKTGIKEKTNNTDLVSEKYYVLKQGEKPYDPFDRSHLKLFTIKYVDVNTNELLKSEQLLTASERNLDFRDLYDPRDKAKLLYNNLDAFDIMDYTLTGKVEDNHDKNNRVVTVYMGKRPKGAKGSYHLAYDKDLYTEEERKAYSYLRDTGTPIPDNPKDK

`COc1ccc(-n2c(C)cc(/C=C3/SC(=S)N(C)C3=O)c2C)cc1` was tested, and the EC50 [1] was > 53 µM (inactive).
In the case of `CC(=O)N1CCN(c2ccccc2NC(=O)COc2ccc(Br)cc2)CC1`, the AC50 (Cytochrome P450 2D6) was 15.8 µM (inconclusive).
`O=C(NCc1cc(C(F)(F)F)ccc1Cl)c1cccc2c1C(=O)c1ccc(N3CCC(Cc4ccccc4)CC3)cc1S2(=O)=O` was tested, and the EC50 [1] was 5.99 µM (active).
`CCOC(=O)c1ccc(NC(=O)COc2ccccc2OC)cc1` was tested, and the AC50 (Cytochrome P450 2C19; read-out: AC50) was 3.98 µM (inconclusive) and the AC50 (Cytochrome P450 1A2) was 7.08 µM (inconclusive).
For `COc1ccc2nc(N3CCCC(C(=O)NCCCN4CCN(C)CC4)C3)sc2c1` (stereo unspecified), the AC50 (Cytochrome P450 2C9) was 4.47 µM (inconclusive), the AC50 (Cytochrome P450 2C19) was “inconclusive” and the AC50 (Cytochrome P450 1A2) was 12.6 µM (inconclusive).
`CC(=O)NC(CCS(C)(=O)=O)C(=O)Nc1c(F)cccc1F` (stereo unspecified) was tested, and the AC50 (Cytochrome P450 2C19) was “inconclusive”.
`CCOC(=O)C1CCCN(C(=O)CSCc2ccccc2)C1` (stereo unspecified) was tested, and the AC50 (Cytochrome P450 2D6) was 15.8 µM (inconclusive).
In the case of `CC(C)CN1CC[C@@]2(CCCN(C(=O)c3cc(C(F)(F)F)cc(C(F)(F)F)c3)C2)C1`, the AC50 (Cytochrome P450 2C19; read-out: AC50) was 39.8 µM (inconclusive) and the AC50 (Cytochrome P450 1A2) was 25.1 µM (inconclusive).
For `COc1ccc(C(=O)O[C@H]2CC[C@@]3(C)[C@H]4CC[C@H]5[C@]3(C[C@]3(O)[C@H]6CN7C[C@H](C)CC[C@H]7[C@](C)(O)[C@]6(O)[C@H](O)C[C@]53O)O[C@]24O)cc1OC`, the AC50 (Cytochrome P450 2C19) was “inconclusive”.
With `Cc1ccc(S(=O)(=O)N2CCC(=O)N(C(COCc3ccc(Cl)c(Cl)c3)Cc3ccccc3)CC2)cc1` (stereo unspecified) the EC50 [1] was 4.29 µM (active).
In the case of `COc1ccc(C(=O)N2CCC[C@@]3(CCN(CC(C)C)C3)C2)cc1`, the AC50 (Cytochrome P450 2D6) was 15.8 µM (inconclusive) and the AC50 (Cytochrome P450 1A2) was 31.6 µM (inconclusive).
`CCOC(=O)c1cc2sc(C)cc2n1CC(=O)N1CCN(C(=O)c2ccco2)CC1` was tested, and the AC50 (Cytochrome P450 2C9) was 20 µM (inconclusive) and the AC50 (Cytochrome P450 1A2) was 31.6 µM (inconclusive).
In the case of `COc1ccc(CNc2ncnc3ccc(-c4ccc(N(C)C)cc4)cc23)c(OC)c1`, the AC50 (Cytochrome P450 2C9) was 0.398 µM (inconclusive) and the AC50 (Cytochrome P450 2D6) was 25.1 µM (inconclusive).
In the case of `CCc1cc2c(=O)c(-c3nc4ccccc4n3C)c(C)oc2c(CN(CC)CC)c1O`, the AC50 (Cytochrome P450 2C19; read-out: AC50) was 3.55 µM (inconclusive).
With `CCOC(=O)c1oc2cc(O)cc(C)c2c1C` the IC50 [2] was 21 µM (active).
`O=C(CNC(=O)c1cccs1)NCC(=O)OCc1ccc(Cl)cc1` was tested, and the AC50 (Cytochrome P450 2C9) was 0.126 µM (inconclusive).
In the case of `COCCN=C(S)NC1CC2CCCC(C1)N2Cc1cccs1` (stereo unspecified), the AC50 (Cytochrome P450 2C9) was 39.8 µM (inconclusive).
For `Nc1ccc(/N=N\c2ccccc2)c(N)n1`, the AC50 (Cytochrome P450 2C9) was 15.8 µM (inconclusive) and the AC50 (Cytochrome P450 2C19; read-out: AC50) was 7.94 µM (inconclusive).
`c1cncc(-c2cc(NCc3cccs3)ncn2)c1` was tested, and the AC50 (Cytochrome P450 2D6) was 25.1 µM (inconclusive).
With `O=c1c(-c2ccc(F)cc2)nc2cnc(Oc3ccccc3)nc2n1Cc1cccs1` the AC50 (Cytochrome P450 2C9) was 2.51 µM (inconclusive).
For `CCC(C)Sc1cc(C(F)(F)F)c(C(=O)Nc2ccc(Cl)cc2)cn1` (stereo unspecified), the EC50 (Streptococcus) was 7.94 µM (active), the EC50 [3] was 4.03 µM (active) and the EC50 (Streptokinase A) was 2.38 µM (active).
